Test results published in US11266715B2, “C3A receptor agonists for use against ischemic brain injury, stroke, traumatic brain injury, spinal cord injury and neurodegenerative disorders” (priority 2016, dated 2022).

Assays:
[1] = system: VGLUT1+ puncta; test: VGLUT1 immunostaining of dorsal hippocampus after neonatal HI; type: in vivo, mouse; conditions: between groups or hemispheres
Procedure: Neuronal nuclei (NeuN), growth associated protein 43 (GAP-43), synapsin I (SYN), vesicular glutamate transporter 1 (VGLUT1), Glial Fibrillary Acidic Protein (GFAP) and ionized calcium-binding adapter molecule 1 (Iba-1) were visualized in the cornu ammonis (CA) and dentate gyrus (DG) of the dorsal hippocampus by immunohistochemistry. Briefly, following heat-induced antigen retrieval with 0.01 M citrate buffer (pH 6, 0.05% Tween 20) for 3×5 min, sections were washed 3×5 min with PBS-T (0.05% Tween 20), non-specific protein binding was reduced by incubation with blocking buffer [4% normal donkey serum (NeuN and Iba-1), 1% bovine serum albumin (GAP-43 and SYN), 3% normal goat serum (VGLUT1), 2% bovine serum albumin (GFAP) in PBS-T] for 1 h at room temperature (RT). […]
(§1) NeuN positive cells, GFAP positive relative area, as well as GAP-43, SYN, and VGLUT1 positive puncta were counted by using MetaMorph software (ver. 7.8.6, Molecular Devices, CA, USA) on confocal images obtained with a 20× (NeuN and GFAP) or 63× (GAP-43, SYN, and VGLUT1) objective (Carl Zeiss LSM 700 Laser Scanning Microscope, Jena, Germany). Iba-1 positive cell somata were counted on bright field images obtained with a 20× objective (Nikon Eclipse 80i). […]

[2] = system: newly differentiated neurons; conditions: in vitro; cited from earlier work
[3] = system: NeuN+ cells; test: NeuN positive cell density in dorsal hippocampus after neonatal HI; type: in vivo, mouse
Procedure: Neuronal nuclei (NeuN), growth associated protein 43 (GAP-43), synapsin I (SYN), vesicular glutamate transporter 1 (VGLUT1), Glial Fibrillary Acidic Protein (GFAP) and ionized calcium-binding adapter molecule 1 (Iba-1) were visualized in the cornu ammonis (CA) and dentate gyrus (DG) of the dorsal hippocampus by immunohistochemistry. Briefly, following heat-induced antigen retrieval with 0.01 M citrate buffer (pH 6, 0.05% Tween 20) for 3×5 min, sections were washed 3×5 min with PBS-T (0.05% Tween 20), non-specific protein binding was reduced by incubation with blocking buffer [4% normal donkey serum (NeuN and Iba-1), 1% bovine serum albumin (GAP-43 and SYN), 3% normal goat serum (VGLUT1), 2% bovine serum albumin (GFAP) in PBS-T] for 1 h at room temperature (RT). Tissue was then incubated with the primary antibody [anti-NeuN biotinylated (1:200, MAB 377B, Millipore, Mass., USA), anti-GAP-43 (1:1000, MAB347, Millipore, Mass., USA), anti-SYN (1:150, SC-7379, Santa Cruz, Calif., USA), anti-VGLUT1 (1:500, AB5905, Millipore, Mass., USA), anti-GFAP (1:200, Z0334, Dako, Stockholm, Sweden), anti-Iba-1 (1:500, 019-19741, Wako, Osaka, Japan)] in blocking buffer overnight at 4° C. One slide per staining batch was incubated only with blocking buffer without primary antibody and used as a negative control. Next, sections were washed 3×5 min with PBS-T and incubated with the secondary antibody [rabbit-anti mouse biotinylated Ig (1:200, GAP-43, E0354, Dako, Stockholm, Sweden), donkey-anti goat biotinylated Ig (1:200, SYN, 705065147, Jackson ImmunoResearch Inc., PA, USA), Alexa Fluor 488 goat-anti guinea pig Ig (1:500, VGLUT1, A11073, Molecular Probes, Oregon, USA), Alexa Fluor 488 goat-anti rabbit (1:2000, GFAP, A11034, Molecular Probes, Oregon, USA), donkey-anti rabbit biotinylated (1:500, Iba-1, 711-065-152, Jackson ImmunoResearch Inc., PA, USA), in blocking buffer for 1 h at RT. After washing 3×5 min with PBS-T, sections were incubated with Streptavidin-Cy3 (1:100 (GAP-43, SYN), 1:300 (NeuN), S6402, Sigma-Aldrich, Missouri, USA) in blocking buffer for 1 h at RT. Then, sections were washed 3×5 min with PBS-T, mounted with Pro Long Gold (P36931, Life Technologies, CA, USA) and cover slipped for 24 h before being sealed with nail polish. […]
as §1

[4] = Body weight gain after neonatal HI and intranasal treatment; type: in vivo, mouse; conditions: across surgeries, treatments and genotypes
Source text: Unpaired t test was used to analyze the cue-induced fear conditioning experimental data. For the analysis of the total exploration time during the object recognition test and the open field experiment, one-way Analysis of Variance (ANOVA) was used, followed by a Tukey's multiple comparisons post-hoc test. Two-way ANOVA, with a Tukey's multiple comparisons post-hoc test, was used to analyze time spent exploring individual objects during the object recognition test, as well as the histomorphologic data and image analysis data. Two-way repeated measures ANOVA with a Tukey's multiple comparisons post-hoc test were used to analyze the body weight. Data are presented as mean±SEM. P values <0.05 were considered statistically significant.
To assess potential adverse effects of intranasal C3a administration on the overall animal health status and development, the inventors recorded animal weight gain across surgeries, treatments and different genotype conditions.

[5] = system: Iba-1+ cells; test: Iba-1 positive cell density in dorsal hippocampus after neonatal HI; type: in vivo, mouse; conditions: P55, 3 days treatment after HI
Procedure: On P51 (long-term study) or P55 (short-term study), mice were deeply anesthetized with thiopental [Pentothal Sodium (0.01 ml/g body weight), Hospira, Ill., USA)] and transcardially perfused with 0.9% saline, followed by 4% paraformaldehyde (PFA) in 0.1 M PBS. Brains were removed and post-fixed in 4% PFA at 4° C. for 24 h followed by 70% ethanol for 24 h. Tissue was processed using an automatic tissue processor (SAKURA Tissue Tek VIP 3000, Tournai, Belgium) and embedded in paraffin. Brains were cut at room temperature into 8-μm serial coronal sections using a sliding microtome (Microm HM 450, Thermo Scientific, Massachusetts, USA), attached to silane coated slides and dried at RT. […]
as §1

## C3a: Purified human C3a peptide (Complement Technologies), C3a receptor agonist, amino acid sequence SEQ ID NO: 1
[1]
  density or average area of VGLUT1+ puncta in CA1 or dentate gyrus: did not find any differences
[2]
  neurite outgrowth: increased neurite outgrowth
[3]; both HI groups, p<0.01 and p<0.05
  neuronal density in CA1 and CA3, ipsilesional vs contralesional hemisphere: decreased in the ipsilesional hemisphere
[3]; data not shown
  NeuN+ cell density in the DG: No effect
[3]; p<0.01
  number of NeuN+ cells in injured CA3 vs sham mice: lower compared with sham mice
[3]; p<0.05 for PBS
  number of NeuN+ cells in injured CA1 vs sham mice: of PBS but not C3a treated mice was lower compared with sham mice
[4]
  body weight gain: neither the surgery nor the C3a treatment affected body weight gain
[5]
  density of Iba-1+ cells, ipsilateral vs contralateral: did not differ between the hemispheres
